Calls of active or inactive are those of the source.
Tests used:
[1] = HPDE-C7 pancreatic duct cell viability loss – fluorescence, HTS (AID 430); format: functional, cell-based; conditions: Homo sapiens
Bcl-2-related protein A1 [2] = target: T1, Bcl-2-related protein A1 (Mus musculus, UniProt Q07440); test: Bfl-1 binding inhibitors, SAR follow-up, biochemical, fluorescence polarization (AID 1070)
T1 sequence (Q07440 whole entry): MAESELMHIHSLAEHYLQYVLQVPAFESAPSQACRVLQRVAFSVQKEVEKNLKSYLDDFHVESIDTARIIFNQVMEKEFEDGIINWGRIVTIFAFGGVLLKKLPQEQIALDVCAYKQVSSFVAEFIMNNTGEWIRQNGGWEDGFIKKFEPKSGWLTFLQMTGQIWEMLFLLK

[3] = target: Glyceraldehyde-3-phosphate dehydrogenase (Homo sapiens, UniProt P04406)
[4] = viability loss of HPDE-C7K cells – cell-based, fluorescence, HTS, primary screen (AID 431); format: functional; conditions: Homo sapiens
Bcl-2-related protein A1 [5] = target: T1, Bcl-2-related protein A1; test: displacement of Bid BH3 peptide from Bfl-1 – biochemical, fluorescence polarization, FITC-Bid, mouse, primary screen (AID 432)
Bcl-2-related protein A1 [6] = target: T1, Bcl-2-related protein A1; test: small-molecule antagonists of Bfl-1/BH3 interaction – biochemical, TR-FRET, mouse Bfl-1, confirmation (AID 621);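 further: TR-FRET binding of GST-Bfl-1 to FITC-labelled Bid peptide via terbium antibody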
[7] = target: T2, Mannose-6-phosphate isomerase (Homo sapiens, UniProt P34949); test: MPI inhibition at elevated mannose 6-phosphate – biochemical, fluorescence intensity, high mannose 6-phosphate, primary screen (AID 1220)
T2 sequence (P34949 whole entry): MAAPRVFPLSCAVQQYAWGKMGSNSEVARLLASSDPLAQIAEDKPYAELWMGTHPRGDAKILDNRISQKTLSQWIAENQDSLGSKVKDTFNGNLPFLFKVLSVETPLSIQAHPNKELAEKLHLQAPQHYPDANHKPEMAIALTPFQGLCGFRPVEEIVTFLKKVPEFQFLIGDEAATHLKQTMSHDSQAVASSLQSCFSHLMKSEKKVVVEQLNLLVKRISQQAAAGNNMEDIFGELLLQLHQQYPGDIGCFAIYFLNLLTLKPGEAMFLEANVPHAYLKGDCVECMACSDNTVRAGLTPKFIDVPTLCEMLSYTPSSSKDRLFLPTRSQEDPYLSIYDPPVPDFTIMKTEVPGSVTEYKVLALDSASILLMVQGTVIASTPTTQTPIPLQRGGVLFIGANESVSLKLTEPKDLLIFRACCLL

[8] = NIH3T3 cell viability loss – ATP luminescence, mouse fibroblasts, counter-screen, dose response (AID 2010); format: functional, cell-based;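 further: cells exposed to compound for about 90 hours before reading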
[9] = Trypanosoma cruzi growth suppression in host cells – NIH3T3 host cells, beta-gal luminescence, confirmation (AID 2044); format: functional, cell-based;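 further: intracellular parasites grown in NIH/3T3 mouse fibroblasts as host cells; luminescent beta-galactosidase reporter signal from transgenic T. cruzi replicating inside host cells; inhibitors lower the luminescence signal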
[10] = target: T2, Mannose-6-phosphate isomerase; test: MPI enzyme activity inhibition – biochemical, fluorescence intensity, coupled assay, primary screen (AID 1209)
[11] = target: T3, Rac GTPase-activating protein 1 (Homo sapiens, UniProt Q9H0H5); test: blockers of MgcRacGAP-driven Rac1 GTP hydrolysis – biochemical, ADP Hunter fluorescence, primary and confirmatory, confirmation (AID 624330); format: functional
T3 sequence (Q9H0H5 whole entry): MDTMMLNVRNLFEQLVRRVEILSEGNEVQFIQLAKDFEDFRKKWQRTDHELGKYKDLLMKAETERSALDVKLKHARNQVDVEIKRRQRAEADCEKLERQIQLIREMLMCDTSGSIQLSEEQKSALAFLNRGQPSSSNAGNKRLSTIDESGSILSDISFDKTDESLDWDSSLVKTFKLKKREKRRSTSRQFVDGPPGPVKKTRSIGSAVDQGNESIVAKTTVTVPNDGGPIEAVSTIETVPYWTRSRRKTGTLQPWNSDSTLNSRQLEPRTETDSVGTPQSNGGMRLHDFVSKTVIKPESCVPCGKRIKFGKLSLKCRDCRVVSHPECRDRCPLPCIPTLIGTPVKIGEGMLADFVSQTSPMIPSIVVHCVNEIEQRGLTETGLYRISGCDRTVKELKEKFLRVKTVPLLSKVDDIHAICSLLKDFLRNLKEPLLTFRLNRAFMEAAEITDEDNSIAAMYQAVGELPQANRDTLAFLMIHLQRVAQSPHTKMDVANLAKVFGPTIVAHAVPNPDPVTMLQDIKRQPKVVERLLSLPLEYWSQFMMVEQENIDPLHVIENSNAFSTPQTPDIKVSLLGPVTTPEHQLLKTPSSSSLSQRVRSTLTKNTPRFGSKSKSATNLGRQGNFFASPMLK

[12] = target: Bifunctional protein GlmU (Mycobacterium tuberculosis, UniProt P9WMN3); test: Inhibitors of Mycobacterial Glucosamine-1-phosphate acetyl transferase (GlmU). Secondary screen.; set-up: species or system Mycobacterium tuberculosis H37Rv
Protein RecA = target: T4, Protein RecA (Mycobacterium tuberculosis, UniProt P9WHJ3); test: Fluorescence Cell-Free Homogeneous Dose Retest to Identify Inhibitors of RecA-Intein Splicing Activity. [Related pubchem assays (depositor defined):AID2097, AID2223, AID489010, AID492950]; format: functional
T4 sequence (P9WHJ3 whole entry): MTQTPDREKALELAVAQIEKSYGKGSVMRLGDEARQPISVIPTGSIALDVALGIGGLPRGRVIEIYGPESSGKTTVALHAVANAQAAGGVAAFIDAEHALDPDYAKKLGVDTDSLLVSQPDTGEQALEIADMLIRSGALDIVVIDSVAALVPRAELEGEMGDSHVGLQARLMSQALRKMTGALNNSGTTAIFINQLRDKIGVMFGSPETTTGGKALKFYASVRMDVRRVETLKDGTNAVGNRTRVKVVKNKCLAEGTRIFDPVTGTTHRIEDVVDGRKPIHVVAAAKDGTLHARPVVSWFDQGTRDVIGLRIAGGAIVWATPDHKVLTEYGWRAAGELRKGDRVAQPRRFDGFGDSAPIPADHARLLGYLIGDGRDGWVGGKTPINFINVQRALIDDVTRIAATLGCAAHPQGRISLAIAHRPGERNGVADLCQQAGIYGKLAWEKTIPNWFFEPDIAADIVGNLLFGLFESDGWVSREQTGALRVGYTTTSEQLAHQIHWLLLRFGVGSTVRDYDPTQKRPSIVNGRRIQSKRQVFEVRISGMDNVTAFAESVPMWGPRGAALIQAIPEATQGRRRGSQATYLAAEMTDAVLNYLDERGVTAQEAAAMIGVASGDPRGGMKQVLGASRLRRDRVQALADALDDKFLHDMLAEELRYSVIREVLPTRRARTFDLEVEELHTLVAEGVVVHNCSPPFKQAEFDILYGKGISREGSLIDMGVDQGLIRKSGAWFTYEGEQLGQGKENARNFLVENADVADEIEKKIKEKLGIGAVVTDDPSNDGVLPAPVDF

[13] = target: T5, Replicative DNA helicase DnaB (Mycobacterium tuberculosis, UniProt P9WMR3); test: DnaB intein splicing inhibitors, dose response, biochemical, cell-free fluorescence (AID 449749); format: functional
T5 sequence (P9WMR3 whole entry): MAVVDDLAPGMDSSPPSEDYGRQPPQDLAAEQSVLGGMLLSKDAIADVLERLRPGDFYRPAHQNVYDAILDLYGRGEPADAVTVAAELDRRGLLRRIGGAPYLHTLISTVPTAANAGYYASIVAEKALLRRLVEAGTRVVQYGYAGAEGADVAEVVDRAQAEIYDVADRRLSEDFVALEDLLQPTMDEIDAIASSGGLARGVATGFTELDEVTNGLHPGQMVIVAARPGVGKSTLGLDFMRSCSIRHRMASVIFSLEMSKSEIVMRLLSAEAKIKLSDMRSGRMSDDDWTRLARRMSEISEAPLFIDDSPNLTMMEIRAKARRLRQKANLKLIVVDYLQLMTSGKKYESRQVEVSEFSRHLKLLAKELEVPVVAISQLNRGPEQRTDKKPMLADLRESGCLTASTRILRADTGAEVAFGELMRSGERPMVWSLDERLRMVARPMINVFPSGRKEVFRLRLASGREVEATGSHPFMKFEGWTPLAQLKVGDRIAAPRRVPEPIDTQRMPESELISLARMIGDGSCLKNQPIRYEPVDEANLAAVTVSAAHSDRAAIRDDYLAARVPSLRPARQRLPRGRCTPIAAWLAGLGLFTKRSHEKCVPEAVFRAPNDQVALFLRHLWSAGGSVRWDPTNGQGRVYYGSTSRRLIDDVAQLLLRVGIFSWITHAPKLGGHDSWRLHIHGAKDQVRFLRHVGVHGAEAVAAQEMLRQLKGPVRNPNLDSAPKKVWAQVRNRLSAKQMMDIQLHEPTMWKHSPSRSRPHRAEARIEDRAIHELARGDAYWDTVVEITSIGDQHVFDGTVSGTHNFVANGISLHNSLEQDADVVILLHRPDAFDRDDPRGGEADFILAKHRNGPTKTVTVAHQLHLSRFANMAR

Genome polyprotein = Genome polyprotein (dengue virus type 2, UniProt P29990); test: flavivirus cap methylation enzyme inhibition – biochemical, confirmation dose response, primary screen (AID 588689); format: functional
cells = format: functional, cell-based
Protein Tat = Protein Tat (Human immunodeficiency virus type 1 group M subtype B (isolate HXB2)(HIV-1), UniProt P04608); format: functional;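 further: tat binding to TAR RNA read out by fluorescence polarization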
[14] = luciferase reporter signal reduction – luminescence, H4-C neuroglioblastoma cells, dose response (AID 2458); format: functional, cell-based;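 further: H4 neuroglioblastoma cells stably carrying a luciferase reporter gene fusion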
[15] = Luminescence Cell-Based Dose Response HTS to Identify Inhibitors of 5'UTR Stem-Loop Driven Prion Protein mRNA Translation in H4 Neuroglioblastoma Cells. [Related pubchem assays: 1827 (Project Summary), 1813 (Primary HTS)]; format: functional
[16] = luciferase reporter signal suppression in cells – H4 neuroglioma cells, luminescence, dose response (AID 1990); format: functional, cell-based
[17] = alpha-synuclein stem-loop luciferase translation blockers – H4 neuroglioma cells, luminescence, confirmation (AID 1988); format: functional, cell-based
[18] = alpha-synuclein stem-loop translation blockers – luminescence, H4 neuroglioblastoma cells, dose confirmation, confirmation (AID 2454); format: functional, cell-based;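 further: H4 neuroglioblastoma cells carrying an alpha-synuclein 5'UTR luciferase reporter; potency for inhibition of the luciferase signal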

Sequence of Bifunctional protein GlmU (P9WMN3 whole entry): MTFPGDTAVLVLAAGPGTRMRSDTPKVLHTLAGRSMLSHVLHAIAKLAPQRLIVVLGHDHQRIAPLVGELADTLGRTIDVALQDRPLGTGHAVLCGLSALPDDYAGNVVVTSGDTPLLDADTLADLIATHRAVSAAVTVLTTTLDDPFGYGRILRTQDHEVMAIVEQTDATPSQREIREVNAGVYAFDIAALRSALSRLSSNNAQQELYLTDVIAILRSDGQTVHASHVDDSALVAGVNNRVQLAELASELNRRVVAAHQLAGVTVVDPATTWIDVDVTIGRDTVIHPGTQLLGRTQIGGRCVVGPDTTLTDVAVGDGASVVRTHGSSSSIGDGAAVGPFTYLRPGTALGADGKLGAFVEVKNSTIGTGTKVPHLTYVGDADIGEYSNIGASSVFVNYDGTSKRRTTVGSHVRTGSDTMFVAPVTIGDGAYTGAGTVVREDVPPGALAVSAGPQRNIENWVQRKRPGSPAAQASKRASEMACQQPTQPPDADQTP
Sequence of Glyceraldehyde-3-phosphate dehydrogenase (P04406 whole entry): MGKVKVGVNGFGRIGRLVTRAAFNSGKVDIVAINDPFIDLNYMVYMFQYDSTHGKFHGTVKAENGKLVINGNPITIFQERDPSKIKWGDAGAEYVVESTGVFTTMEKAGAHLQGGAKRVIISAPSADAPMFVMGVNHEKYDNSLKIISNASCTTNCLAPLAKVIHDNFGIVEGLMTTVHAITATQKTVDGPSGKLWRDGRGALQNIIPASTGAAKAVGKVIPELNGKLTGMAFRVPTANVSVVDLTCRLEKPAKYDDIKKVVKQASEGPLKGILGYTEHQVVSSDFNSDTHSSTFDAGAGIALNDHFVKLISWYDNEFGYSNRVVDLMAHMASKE
Sequence of Protein Tat (P04608 whole entry, the tested form may be a part): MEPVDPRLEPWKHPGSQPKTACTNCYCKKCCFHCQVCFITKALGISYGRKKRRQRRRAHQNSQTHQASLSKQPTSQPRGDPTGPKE
Sequence of Genome polyprotein (P29990 2492-3391 limits assumed): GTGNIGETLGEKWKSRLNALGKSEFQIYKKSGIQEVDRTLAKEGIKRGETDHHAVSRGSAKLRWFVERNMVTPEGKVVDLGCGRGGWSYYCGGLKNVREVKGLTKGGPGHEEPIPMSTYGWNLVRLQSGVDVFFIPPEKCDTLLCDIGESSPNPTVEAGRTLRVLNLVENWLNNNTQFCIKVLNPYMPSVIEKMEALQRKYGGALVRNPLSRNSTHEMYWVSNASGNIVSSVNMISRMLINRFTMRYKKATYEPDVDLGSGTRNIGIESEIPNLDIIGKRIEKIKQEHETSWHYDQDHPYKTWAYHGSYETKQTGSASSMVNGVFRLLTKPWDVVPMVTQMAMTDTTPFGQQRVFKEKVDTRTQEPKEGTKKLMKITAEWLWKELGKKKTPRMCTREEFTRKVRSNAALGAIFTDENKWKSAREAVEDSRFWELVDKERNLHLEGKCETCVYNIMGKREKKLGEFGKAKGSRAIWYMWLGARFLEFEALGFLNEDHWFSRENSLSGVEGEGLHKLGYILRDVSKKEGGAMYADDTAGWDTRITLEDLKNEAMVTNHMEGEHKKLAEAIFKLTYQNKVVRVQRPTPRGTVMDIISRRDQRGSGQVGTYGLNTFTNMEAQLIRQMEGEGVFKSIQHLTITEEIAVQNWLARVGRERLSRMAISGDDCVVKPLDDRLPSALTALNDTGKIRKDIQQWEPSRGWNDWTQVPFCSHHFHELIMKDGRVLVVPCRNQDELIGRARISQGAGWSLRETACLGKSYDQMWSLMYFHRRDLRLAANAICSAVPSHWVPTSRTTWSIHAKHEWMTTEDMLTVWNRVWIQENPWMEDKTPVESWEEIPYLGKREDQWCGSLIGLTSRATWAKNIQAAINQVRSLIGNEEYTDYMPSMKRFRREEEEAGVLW

For `COc1ccc2c3c(cccc13)NN=C2C`, the EC50 [1] was 13 µM (active), the IC50 (Bcl-2-related protein A1 [2]) was > 100 µM (not active) and the IC50 [3] was > 100 µM (not active). For the same molecule, the EC50 [4] was 9.74 µM (active), the IC50 (Bcl-2-related protein A1 [5]) was 5.44 µM (active) and the IC50 (Bcl-2-related protein A1 [6]) was > 100 µM (not active).

In the case of `COc1ccccc1CNc1ccc(N2CCCCC2)cc1`, the IC50 [7] is reported as > 50 µM (not active), the EC50 [8] is reported as > 60 µM (not active) and the EC50 [9] is reported as 3.17 µM (active).

In the case of `CC(=O)Oc1ccc2c(=O)c(Oc3ccccc3)coc2c1OC(C)=O`, the IC50 [10] is reported as > 50 µM (not active) and the IC50 [11] is reported as 108 µM (active).

In the case of `O=C(O)c1cccc(Nc2cc(Cl)c3nonc3c2[N+](=O)[O-])c1`, the IC50 [12] is reported as 131 µM (active), the EC50 (Protein RecA) is reported as 2.52 µM (active) and the AC50 [13] is reported as 2.05 µM (active). For the same molecule, the IC50 (Genome polyprotein) was 10.7 µM (active).

With `CCC(C)Cn1c(O)cc2nn(-c3nc4ccccc4s3)c(=O)c-2c1C` (configuration not stated) the EC50 (cells) was 0.114 µM (active), the IC50 (Protein Tat) was > 50 µM (active) and the EC50 [14] was 0.058 µM (active). For the same molecule, the EC50 [15] was 0.165 µM (active), the EC50 [16] was < 0.1 µM (active) and the EC50 [17] was < 0.1 µM (active). The EC50 [18] was 0.072 µM (active).

From ChEMBL document CHEMBL1201862, “PubChem BioAssay data set” (2004)
